# From paper PMC11284800 (Journal of Medicinal Chemistry, 2024)
# Where two headings read alike, the source gives them in different places.
# Columns and labels:
# [1] = molecular target: T1, hCB1R (Homo sapiens, UniProt P21554); assay: HTRF cAMP assay, antagonist mode (forskolin with CP55,940); settings: for Emax: read-out: Variation of Emax
# Experimental: The homogeneous time-resolved fluorescence (HTRF) cAMP assay was conducted following the manufacturer’s protocol for the cAMP-Gs Dynamic kit. […] After 15 min, reactions were stopped by the 1× cAMP-d2 conjugate in lysis buffer (5 μL/well), followed by 1× anti-cAMP cryptate conjugate in lysis buffer (5 μL/well). Following a 1 h incubation at room temperature, the plates were read in a Revvity Envision reader for time-resolved fluorescence resonance energy transfer detection at 620 and 665 nm. The HTRF ratio versus compound concentrations was plotted using Prism 8.1 (GraphPad). HTRF ratio = (signal 665 nm/signal 620 nm) × 10^4.
# [2] = molecular target: T2, human CB2R (Homo sapiens, UniProt P34972); assay: [3H]CP55,940 displacement assay on CHO membranes, CB2R; type: binding; settings: for Ki: [3H]CP55,940 displacement; for hCB2R % displacement at 10 µM: [3H]CP55,940 displacement at 10 µM compound, ± SEM
# T2 construct: host or cells: CHO-K1 (CHOK1hCB2_bgal)
# [3] = molecular target: T1, hCB1R; assay: [3H]CP55,940 displacement assay on CHO membranes, CB1R; type: binding; design: host or cells: CHO-K1 (CHOK1hCB1_bgal); settings: for Ki: [3H]CP55,940 displacement; for hCB1R % displacement at 10 µM: [3H]CP55,940 displacement at 10 µM compound, ± SEM
# [4] = molecular target: T1, hCB1R; assay: HTRF cAMP assay, agonist / inverse agonist mode; type: cell-based; design: expressed in transfected cells; host or cells: CHO; settings: for Functional activity at CB1R (in words): CB1R cAMP HTRF assay
# [5] = Photophysical characterization in PBS; type: physicochemical; settings: PBS pH 7.4
# [6] = CHO membranes stably expressing human CB2R, means of three experiments, read-out: hCB2R Ki
# [7] = hCB2R Ki, CHO membranes stably expressing human CB2R, means of three experiments
# [8] = hCB1R Ki, CHO membranes stably expressing human CB1R, means of three experiments
# [9] = CHO membranes stably expressing human CB1R, means of three experiments, read-out: hCB1R Ki
# T2 sequence (P34972 whole entry): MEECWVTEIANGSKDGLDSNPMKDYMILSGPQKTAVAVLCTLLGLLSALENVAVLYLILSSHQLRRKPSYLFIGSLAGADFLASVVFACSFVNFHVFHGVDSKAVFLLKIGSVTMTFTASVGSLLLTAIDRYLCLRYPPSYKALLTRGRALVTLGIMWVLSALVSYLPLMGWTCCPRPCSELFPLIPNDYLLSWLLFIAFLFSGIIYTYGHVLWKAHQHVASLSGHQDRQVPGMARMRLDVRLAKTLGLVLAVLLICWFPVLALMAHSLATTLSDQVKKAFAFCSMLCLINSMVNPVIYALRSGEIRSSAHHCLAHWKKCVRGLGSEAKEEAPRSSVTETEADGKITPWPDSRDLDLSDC
# T1 sequence (P21554 whole entry): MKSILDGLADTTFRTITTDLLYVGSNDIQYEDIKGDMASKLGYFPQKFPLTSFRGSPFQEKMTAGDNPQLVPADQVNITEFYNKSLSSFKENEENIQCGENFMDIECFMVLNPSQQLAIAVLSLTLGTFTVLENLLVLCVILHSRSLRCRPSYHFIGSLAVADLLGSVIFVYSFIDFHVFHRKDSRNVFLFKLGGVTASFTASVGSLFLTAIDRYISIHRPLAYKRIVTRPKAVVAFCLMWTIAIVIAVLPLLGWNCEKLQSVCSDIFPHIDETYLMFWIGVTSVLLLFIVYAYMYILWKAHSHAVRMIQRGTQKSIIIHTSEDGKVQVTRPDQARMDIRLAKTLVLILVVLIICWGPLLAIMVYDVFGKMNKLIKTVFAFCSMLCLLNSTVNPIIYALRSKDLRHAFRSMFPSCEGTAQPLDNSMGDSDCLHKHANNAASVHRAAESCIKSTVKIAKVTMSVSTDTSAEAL
SMILES,"Ki [2, 6]",Emax [4],IC50 [4],Functional activity at CB1R (in words) [4],"Ki [2, 7]","Ki ([2]; hCB2R pKi ± SEM, CHO membranes)","Ki [3, 8]",Abs (absorbance maximum) [5],Em (emission maximum) [5],QY (quantum yield) [5],further results
"Cc1c(C(=O)NN2CCOCC2)nn(-c2ccc(Cl)cc2Cl)c1-c1ccc(I)cc1 [AM281, reference compound]",–,–,–,–,–,–,–,–,–,–,"Variation of Emax ([1]; antagonist mode, normalized to reference antagonist AM281): -100%; Antagonist activity (cAMP assay) pEC50 or pIC50 ± SEM ([1]; antagonist mode, n.a. is no activity): 7.0 ± 0.04"
"CCOC(=O)C(CC)(CC)NC(=O)c1cc(-c2cc(C(F)(F)F)ccc2C(F)(F)F)n(C[C@H]2CCCO2)c1C [Compound 14, Ethyl (R)-2-(5-(2,5-Bis(trifluoromethyl)phenyl)-2-methyl-1-((tetrahydrofuran-2-yl)methyl)-1H-pyrrole-3-carboxamido)-2-ethylbutanoate]",306 nM,-46%,1.48 nM,inverse agonists,–,–,–,–,–,–,"Ki ([3]; hCB1R pKi ± SEM, CHO membranes): 11 nM; Ki(CB2R)/Ki(CB1R) selectivity ([3]; radioligand binding Ki ratio): 28 fold; IC50 [1]: 10 nM; Emax [1]: -107%"
"CCOC(=O)C(CC)(CC)NC(=O)c1nn(-c2ccc(Cl)cc2Cl)c(-c2ccc(Cl)cc2)c1C [Compound 15, Ethyl 2-(5-(4-Chlorophenyl)-1-(2,4-dichlorophenyl)-4-methyl-1H-pyrazole-3-carboxamido)-2-ethylbutanoate]",–,-42%,13.2 nM,inverse agonists,9 nM,8.51 nM,–,–,–,–,"Ki ([3]; hCB1R pKi ± SEM, CHO membranes): 28.2 nM"
"CCOC(=O)C(CC)(CC)NC(=O)c1nn(-c2ccc(Cl)cc2Cl)c2c1CCCc1cc(Cl)ccc1-2 [Compound 16, Ethyl 2-(8-Chloro-1-(2,4-dichlorophenyl)-1,4,5,6-tetrahydrobenzo[6,7]cyclohepta[1,2-c]pyrazole-3-carboxamido)-2-ethylbutanoate]",–,–,–,no activity,–,3.98 nM,–,–,–,–,"Ki ([3]; hCB1R pKi ± SEM, CHO membranes): 17.8 nM"
"CCOC(=O)C(CC)(CC)NC(=O)c1cnc(OCC2CC2)c(-c2ccc(F)cc2)c1 [Compound 17, Ethyl 2-(6-(Cyclopropylmethoxy)-5-(4-fluorophenyl)nicotinamido)-2-ethylbutanoate]",–,-48%,43.6 nM,inverse agonists,6 nM,6.46 nM,308 nM,–,–,–,IC50 [1]: 3980 nM; Emax [1]: -116%
"CCOC(=O)C(CC)(CC)NC(=O)c1cnc(OCCOC)c(-c2ccc(Cl)cc2)n1 [Compound 18, Ethyl 2-(6-(4-Chlorophenyl)-5-(2-methoxyethoxy)pyrazine-2-carboxamido)-2-ethylbutanoate]",–,-41%,191 nM,inverse agonists,–,11.2 nM,817 nM,–,–,–,–
"CCOC(=O)C(CC)(CC)NC(=O)c1nn(Cc2cccc(F)c2)c2ccccc12 [Compound 19, Ethyl 2-Ethyl-2-(1-(3-fluorobenzyl)-1H-indazole-3-carboxamido)butanoate]",–,93%,–,agonist,1 nM,0.631 nM,–,–,–,–,"Ki ([3]; hCB1R pKi ± SEM, CHO membranes): 19.1 nM; EC50 [4]: 3.24 nM"
"CCC(CC)(NC(=O)c1cc(-c2cc(C(F)(F)F)ccc2C(F)(F)F)n(C[C@H]2CCCO2)c1C)C(=O)NCCOCCOCCNC(=O)OC(C)(C)C [Compound 22b, tert-Butyl (R)-(1-(5-(2,5-Bis(trifluoromethyl)phenyl)-2-methyl-1-((tetrahydrofuran-2-yl)methyl)-1H-pyrrol-3-yl)-3,3-diethyl-1,4-dioxo-8,11-dioxa-2,5-diazatridecan-13-yl)carbamate]",> 10000 nM,-69%,–,inverse agonist,–,–,–,–,–,–,"hCB2R % displacement at 10 µM [2]: 22 ± 9%; Ki [3, 9]: 811 nM; IC50 [1]: 1000 nM; Emax [1]: -105%; IC50 ([4]; read-out: Functional activity (cAMP assay) IC50): 131 nM"
"CCC(CC)(NC(=O)c1nn(-c2ccc(Cl)cc2Cl)c(-c2ccc(Cl)cc2)c1C)C(=O)NCCOCCOCCNC(=O)OC(C)(C)C [Compound 23b, tert-Butyl (1-(5-(4-Chlorophenyl)-1-(2,4-dichlorophenyl)-4-methyl-1H-pyrazol-3-yl)-3,3-diethyl-1,4-dioxo-8,11-dioxa-2,5-diazatridecan-13-yl)carbamate]",–,-44%,64.6 nM,inverse agonist,> 10000 nM,–,139 nM,–,–,–,hCB2R % displacement at 10 µM [2]: 44 ± 5%; IC50 [1]: 1580 nM; Emax [1]: -96%
"CCC(CC)(NC(=O)c1nn(-c2ccc(Cl)cc2Cl)c(-c2ccc(Cl)cc2)c1C)C(=O)NCCOCCOCCNc1ccc([N+](=O)[O-])c2nonc12 [Compound 30, 5-(4-Chlorophenyl)-1-(2,4-dichlorophenyl)-4-methyl-N-(3-((2-(2-(2-((7-nitrobenzo[c][1,2,5]oxadiazol-4-yl)amino)ethoxy)ethoxy)ethyl)carbamoyl)pentan-3-yl)-1H-pyrazole-3-carboxamide]",–,-41%,60.3 nM,Inverse agonist,> 10000 nM,–,428 nM,475 nm,570 nm,0.80%,hCB2R % displacement at 10 µM [2]: 49 ± 3%; Ki(CB2R)/Ki(CB1R) ([3]; radioligand binding Ki ratio): > 23
"CCC(CC)(NC(=O)c1cnc(OCC2CC2)c(-c2ccc(F)cc2)c1)C(=O)NCCOCCOCCNc1ccc([N+](=O)[O-])c2nonc12 [Compound 40, 6-(Cyclopropylmethoxy)-5-(4-fluorophenyl)-N-(3-((2-(2-(2-((7-nitrobenzo[c][1,2,5]oxadiazol-4-yl)amino)ethoxy)ethoxy)ethyl)carbamoyl)pentan-3-yl)nicotinamide]",–,–,–,–,481 nM,–,> 10000 nM,465 nm,550 nm,1.30%,hCB1R % displacement at 10 µM [3]: 34 ± 1%
CCC(CC)(NC(=O)c1cnc(OCC2CC2)c(-c2ccc(F)cc2)c1)C(=O)NCCOCCOCCNC(=O)c1ccc2c(c1)C(=O)OC21c2ccc(N(C)C)cc2Oc2cc(N(C)C)ccc21 [Compound 41],> 10000 nM,–,–,–,–,–,–,560 nm,585 nm,47.40%,"hCB2R % displacement at 10 µM [2]: 27 ± 3%; Binding to CB2R (in words) ([2]; radioligand binding assay): did not bind; hCB1R % displacement at 10 µM [3]: 9 ± 1%; Ki [3, 9]: > 10000 nM; Binding to CB1R (in words) ([3]; radioligand binding assay): did not bind"
"CCC(CC)(NC(=O)c1cc(-c2cc(C(F)(F)F)ccc2C(F)(F)F)n(C[C@H]2CCCO2)c1C)C(=O)NCCOCCOCCNc1ccc([N+](=O)[O-])c2nsnc12 [Compound 51, (R)-5-(2,5-Bis(trifluoromethyl)phenyl)-2-methyl-N-(3-((2-(2-(2-((7-nitrobenzo[c][1,2,5]thiadiazol-4-yl)amino)ethoxy)ethoxy)ethyl)carbamoyl)pentan-3-yl)-1-((tetrahydrofuran-2-yl)methyl)-1H-pyrrole-3-carboxamide]",493 nM,–,–,–,–,–,–,465 nm,550 nm,0.30%,"Ki [3, 9]: 316 nM"
"CCC(CC)(NC(=O)c1cc(-c2cc(C(F)(F)F)ccc2C(F)(F)F)n(C[C@H]2CCCO2)c1C)C(=O)NCCOCCOCCNc1ccc([N+](=O)[O-])c2n[nH]nc12 [Compound 52, (R)-5-(2,5-Bis(trifluoromethyl)phenyl)-2-methyl-N-(3-((2-(2-(2-((7-nitro-2H-benzo[d][1,2,3]triazol-4-yl)amino)ethoxy)ethoxy)ethyl)carbamoyl)pentan-3-yl)-1-((tetrahydrofuran-2-yl)methyl)-1H-pyrrole-3-carboxamide]",1620 nM,–,–,–,–,–,–,425 nm,495 nm,0.10%,"Ki [3, 9]: 225 nM"
